Converted amounts (≈) assume the structure as drawn.
What was measured:
[1] = molecular target: estrogen receptors in MCF7 cells (Homo sapiens (Human), UniProt P03372); experiment: Degradation of estrogen receptors in MCF7 cells (in-cell western); type: cell-based; settings: for DC50: 24 hours treatment, read-out: ER level DC50; for Dmax: 24 hours, 0.1 µM fulvestrant = 100% degradation control, read-out: Maximum degradation rate
Method: The purpose of the experiment is to determine the degradation activity of the compounds of the present invention on endogenously expressed estrogen receptors in MCF7 cells, and to evaluate the activity of the compounds according to DC50 and maximum degradation efficiency.
MCF7 cells (ATCC, HTB-22) were cultured in DMEM (Gibco, 11995-065) complete medium containing 10% fetal bovine serum. On the first day of the experiment, MCF7 cells were inoculated in a 384-well plate at a density of 3000 cells/well using the complete medium, and cultured in a 37° C., 5% CO2 cell incubator. The compounds to be tested were dissolved in DMSO with a stock concentration of 10 mM, the solution was diluted with Echo 550 (Labcyte Inc.) and added to the cell culture plate. Each compound with the starting concentration for treatment of 100 nM was subjected to 3-fold gradient dilution with 9 concentration points. A blank control containing 0.5% DMSO was set, and double replicate wells as controls were set at each concentration point. The culture was cultured in a 37° C., 5% CO2 cell incubator for 24 hours. Paraformaldehyde was added to the cell culture medium in each cell culture well, and the final concentration of paraformaldehyde was about 3.7% to fix the cells. After the mixture was reacted for 30 minutes, the supernatant was discarded, and 50 µL of PBS was added to each well for washing once. The cells were treated with PBS containing 0.5% v/v Tween-20 for 30 minutes, and washed with PBS once. A blocking solution (PBS containing 5% BSA, 0.05% Tween-20) was added, and the mixture was incubated at room temperature for 1 hour. The blocking solution was removed, a mixture solution of primary antibodies (anti-ER mAb, Estrogen Receptor α (D8H8) Rabbit mAb, GST, # 8644S, 1 : 1000 dilution; anti-GAPDH mAb, GAPDH(D4C6R) Mouse mAb, GST, #97166S, 1 : 2000 dilution) was added, and the mixture was incubated at room temperature for 3 hours. The culture was washed with PBST (PBS containing 0.05% Tween-20) 3 times. Secondary antibodies for detection (800CW-goat anti-rabbit IgG, LI-COR, P/N: 926-32211, 1 : 1000 dilution; 680RD-goat anti-mouse IgG, LI-COR, #925-68070, 1 : 1000 dilution) were added, and the mixture was incubated at room temperature and in the dark for 45 minutes. After washing with PBST 3 times, the fluorescence signal of each well was read using Odyssey CLx, and the value of Chanel 800 (ER)/Chanel 680 (GAPDH) was calculated. The wells treated with 0.1 µM fulvestrant were used as the 100% degradation control, and the degradation rate at each concentration point was calculated. The data were analyzed and processed by XlLfit, and the degradation activity DC50 and the maximum degradation rate Imax of each compound were calculated.

[2] = Apparent solubility in phosphate buffer at pH 7.4; type: physicochemical; settings: aqueous buffer, kinetic from dmso stock, phosphate buffer pH 7.4, 25° C.
Method: The compounds to be tested were prepared according to the method described. The control drug progesterone was purchased from Sigma. Phosphate buffer with pH 7.4 was prepared in our laboratory. Acetonitrile and methanol were purchased from Fisher. Other reagents were purchased from the market.
10 mM stock solution of substance to be tested and control drug progesterone was prepared with DMSO.
30 µL of 10 mM stock solution of substance to be tested was taken, and added to the corresponding position of the corresponding 96-well plate in the specified order. 970 µL of phosphate buffer (pH 7.4) was added to the corresponding vial in the sample plate. The experiment was performed in parallel duplicate. A stirring rod was added to each vial and a polytetrafluoroethylene/silicone stopper was covered thereon. The sample tray was then placed in an Eppendorf Thermomixer Comfort and shaken at 1100 rpm for 2 hours at 25° C. After 2 hours, the stopper was removed, and the stirring rod was sucked away by a large magnet, then the sample was transferred from the sample plate to the filter plate. A vacuum pump was used to generate negative pressure and the sample was filtered. 5 µL of the filtrate was transferred to a new sample plate, and then 5 µL of DMSO and 490 µL of 50% ACN(IS).H2O (internal standard acetonitrile : water = 1 : 1) were added. Depending on the peak shape, it may be possible to dilute the sample diluent with a certain proportion of 50% ACN(IS).H2O for better peak shape. […]
The loading plate was placed in the loading tray of the autosampler, and the sample was evaluated by liquid chromatography-mass spectrometry analysis.
All calculations are performed via Microsoft Excel. Analysis and quantification of the sample filtrate was accomplished by using the liquid chromatography-mass spectrometry to characterize and quantify the peaks of the standards with known concentrations. The apparent solubility of the compounds of the present invention in phosphate buffer (PH 7.4) was calculated.

estrogen receptors in MCF7 cells, sequence (P03372 whole entry): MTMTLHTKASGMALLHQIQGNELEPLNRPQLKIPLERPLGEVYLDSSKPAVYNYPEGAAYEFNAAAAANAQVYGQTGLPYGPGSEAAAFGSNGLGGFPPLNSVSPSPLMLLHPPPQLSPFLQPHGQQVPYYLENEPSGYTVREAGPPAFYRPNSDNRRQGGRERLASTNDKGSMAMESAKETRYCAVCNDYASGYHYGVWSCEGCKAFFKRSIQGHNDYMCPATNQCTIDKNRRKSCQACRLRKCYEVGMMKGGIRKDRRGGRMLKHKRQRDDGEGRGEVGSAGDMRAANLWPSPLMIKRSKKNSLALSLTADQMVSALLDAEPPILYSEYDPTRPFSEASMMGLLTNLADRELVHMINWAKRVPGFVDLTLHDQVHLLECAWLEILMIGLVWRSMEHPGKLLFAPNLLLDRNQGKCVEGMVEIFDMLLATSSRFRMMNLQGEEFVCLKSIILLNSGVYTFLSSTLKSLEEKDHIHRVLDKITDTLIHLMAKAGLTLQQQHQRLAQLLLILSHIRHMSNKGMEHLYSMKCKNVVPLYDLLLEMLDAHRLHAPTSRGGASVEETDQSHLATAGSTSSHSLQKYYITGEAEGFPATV

| Compound | DC50 [1] | Dmax [1] | solubility at 2 h [2] |
| --- | --- | --- | --- |
| C[C@@H]1Cc2c([nH]c3ccccc23)C(c2c(F)cc(N[C@H]3CCN(CCCF)C3)cc2F)N1CC(F)(F)F (stereo in doubt) [Example 4, (S)-N-(3,5-difluoro-4-((1S,3R)-3-methyl-2-(2,2,2-trifluoroethyl)-2,3,4,9-tetrahydro-1H-pyridino[3,4-b]indol-1-yl)phenyl)-1-(3-fluoropropyl)pyrrolidin-3-amine] | 0.04 nM | 99% | < 0.3 µM |
| C[C@@H]1Cc2c([nH]c3ccccc23)C(c2c(F)cc(N[C@H]3CCN(CCCF)C3)cc2F)N1CC(F)(F)CO (stereo in doubt) [Example 7, 3-((1S,3R)-1-(2,6-difluoro-4-(((S)-1-(3-fluoropropyl)pyrrolidin-3-yl)amino)phenyl)-3-methyl-3,4-dihydro-1H-pyridino [3,4-b]indole-2(9H)-yl)-2,2-difluoropropane-1-ol] | 0.06 nM | – | 4 µM (≈ 2.15 µg/mL) |
| C[C@@H]1Cc2c([nH]c3ccccc23)[C@@H](c2ccc(N[C@H]3CCN(CCCF)C3)cn2)N1CC(F)(F)F [Example 3, N-((S)-1-(3-fluoropropyl)pyrrolidin-3-yl)-6-((1S,3R)-3-methyl-2-(2,2,2-trifluoroethyl)-2,3,4,9-tetrahydro-1H-pyridino[3,4-b]indol-1-yl)pyridine-3-amine] | 0.15 nM | 104% | 92 µM (≈ 45 µg/mL) |

From patent US20230348459A1, “PYRROLIDINE COMPOUND AND USE THEREOF” (SIMCERE PHARMACEUTICAL CO., LTD., priority 2020, published 2023)
